Experimental data published in patent publication US20190225650A1, “PEPTIDOMIMETIC MACROCYCLES AND USE THEREOF IN REGULATING HIF1ALPHA” (AILERON THERAPEUTICS, INC., priority 2013, published 2019).
Bridge positions count the residues as written; N and C are the ends. Square brackets hold non-standard residues; d marks the D form. Peptide text beside a SMILES is read from it. R8 = C=CCCCCCC[C@@](C)(N)C(=O)O; S5 = C=CCCC[C@](C)(N)C(=O)O; Nle = CCCC[C@H](N)C(=O)O

Columns and labels:
[1] = molecular target: T1, flag-tagged HIF1α (AA 786-826) / His6-tagged p300 (AA 323-423) complex (Homo sapiens, UniProt Q09472); experiment: HIF1α p300 displacement assay (TR FRET, +CHAPS); format: binding; conditions: read-out: IC50 (nM) (HIF1α_p300 Displacement + CHAPS)
T1 construct: His6-tagged p300 (AA 323-423); made in house; host or cells: E. coli (pETDuet vector)
Method in brief: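 The co-expressed flag-HIF1α (786-826)/His6-p300 (323-423) complex, purified from E. coli with 0.1 mM ZnSO4, was used at 300 nM final with competitor peptides for 1 h at room temperature. Buffer was 150 mM NaCl, 20 mM HEPES pH 7.4, 7.5 mM CHAPS and 1 mM DTT. Anti-Flag-K (0.5 μM) and anti-His-D2 (4 nM) were then added for 2 h, and IC50s were fitted from the TR-FRET ratio.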

[2] = system: HRE-bla ME-180 cells; experiment: Reporter gene assay (HRE-bla ME-180 HIF reporter, GeneBLAzer); format: cell-based, human; conditions: for EC50: 24 hour normoxia
Method in brief: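 A FRET β-lactamase readout of HIF transcription was used. After compound treatment in 0.3% DMSO/media under normoxic conditions, 20 μl of 6× LiveBLAzer-FRET B/G (CCF4-AM) substrate was added. Plates sat 3 hr at room temperature in the dark and were read at 409 Ex/460Em and 409Ex/530Em on a Synergy 2. Inhibition was compared against DMSO vehicle controls, with chetomin as positive control.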

[3] = system: HRE-bla ME-180 cells; experiment: Cell proliferation assay (viability, MTT, 1% FBS); format: cell-based, human
Method in brief: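 ME-180 cells (2×10^4/well) in Opti-MEM with 1% FBS were pretreated 16 h under normoxia (21% O2), vehicle 0.5% DMSO final. Incubation then continued under normoxia or hypoxia (1% O2); viable cells quantified by MTT-type CellTiter 96 assay.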

SMILES | IC50 [1] [nM] | 18 h Avg % max inhibition at top conc (HIF Rptr-24 hrs normoxia) (μM) [2] | EC50 [2] [µM] | Viability 1% FBS AVG (MTT V3-24 hr Normoxia) (μM) [3]
CCCC[C@H](NC(=O)[C@H](Cc1ccccc1)NC(=O)[C@@H](NC(=O)[C@H](C)NC(=O)[C@H](CCC(N)=O)NC(=O)[C@H](CC(=O)O)NC(=O)[C@@H](NC(=O)[C@H](Cc1ccccc1)NC(C)=O)[C@@H](C)CC)C(C)C)C(=O)N[C@@]1(C)CCCC=CCCC[C@@](C)(C(=O)N[C@@H](CCCNC(=N)N)C(=O)N[C@@H](C)C(=O)N[C@@H](CC(C)C)C(=O)N[C@@H](CC(C)C)C(N)=O)NC(=O)[C@H]([C@@H](C)CC)NC(=O)[C@H](C(C)C)NC(=O)[C@H](CC(C)C)NC1=O [SP-256] (Ac-FIDQAVF[Nle][S5]LVI[S5]RALL-NH2; staple 9-13) | > 700 | ++++ (≥50: ++++) | ≤ 5 | ++ (≤5 but <15: ++)
CCCC[C@H](NC(=O)[C@H](CC(C)C)NC(=O)[C@@H](NC(=O)[C@H](CCC(=O)O)NC(=O)[C@H](CCC(=O)O)NC(=O)[C@H](CC(=O)O)NC(=O)[C@@H](NC(=O)[C@H](CC(N)=O)NC(=O)[C@@H](NC(=O)[C@H](CCC(N)=O)NC(=O)[C@H](CC(=O)O)NC(=O)[C@H](CC(C)C)NC(=O)[C@H](C)NC(=O)[C@H](CCCNC(=N)N)NC(=O)[C@]1(C)CCCC=CCCC[C@](C)(NC(=O)[C@H](CCC(N)=O)NC(=O)[C@H](CC(C)C)NC(=O)[C@H](CC(C)C)NC(C)=O)C(=O)N[C@@H](CCC(=O)O)C(=O)N[C@@H](CCC(=O)O)C(=O)N[C@@H](CC(C)C)C(=O)N1)C(C)C)[C@@H](C)CC)C(C)C)C(=O)N[C@@]1(C)CCCC=CCCC[C@@](C)(C(=O)N[C@@H](CCCC)C(=O)NCC(N)=O)NC(=O)[C@H]([C@@H](C)CC)NC(=O)[C@H](C(C)C)NC(=O)[C@H](CC(C)C)NC1=O [SP-306] (Ac-LLQ[S5]EEL[S5]RALDQVNIDEEVL[Nle][S5]LVI[S5][Nle]G-NH2; staple 4-8, 23-27) | ≤ 200 | +++ (≤25 but <50: +++) | > 30 | ++++ (≥30: ++++)
CCCC[C@H](NC(=O)[C@H](Cc1ccccc1)NC(=O)[C@@H](NC(=O)[C@H](C)NC(=O)[C@H](CCC(N)=O)NC(=O)[C@H](CC(=O)O)NC(=O)[C@@H](NC(=O)[C@H](Cc1ccccc1)NC(C)=O)[C@@H](C)CC)C(C)C)C(=O)N[C@@]1(C)CCCC=CCCC[C@@](C)(C(=O)N[C@@H](Cc2c[nH]cn2)C(=O)N[C@@H](C)C(=O)N[C@@H](CC(C)C)C(=O)N[C@@H](CC(C)C)C(N)=O)NC(=O)[C@H]([C@@H](C)CC)NC(=O)[C@H](C(C)C)NC(=O)[C@H](CC(C)C)NC1=O [SP-258] (Ac-FIDQAVF[Nle][S5]LVI[S5]HALL-NH2; staple 9-13) | > 700 | +++ (≤25 but <50: +++) | 5 to 15 | ++ (≤5 but <15: ++)
CCCC[C@H](NC(=O)[C@H](CC(C)C)NC(=O)[C@@H](NC(=O)[C@H](CCC(=O)O)NC(=O)[C@H](CCC(=O)O)NC(=O)[C@H](CC(=O)O)NC(=O)[C@@H](NC(=O)[C@H](CC(N)=O)NC(=O)[C@@H](NC(=O)[C@H](CCC(N)=O)NC(=O)[C@H](CC(=O)O)NC(=O)[C@H](CC(C)C)NC(=O)[C@H](C)NC(=O)[C@]1(C)CCCC=CCCC[C@](C)(NC(=O)CNC(=O)[C@H](CCC(N)=O)NC(=O)[C@H](CC(C)C)NC(=O)[C@H](CC(C)C)NC(C)=O)C(=O)N[C@@H](CCC(=O)O)C(=O)N[C@@H](CC(C)C)C(=O)N[C@@H](CC(C)C)C(=O)N1)C(C)C)[C@@H](C)CC)C(C)C)C(=O)N[C@@]1(C)CCCC=CCCC[C@@](C)(C(=O)N[C@@H](CCCC)C(=O)NCC(N)=O)NC(=O)[C@H]([C@@H](C)CC)NC(=O)[C@H](C(C)C)NC(=O)[C@H](CC(C)C)NC1=O [SP-338] (Ac-LLQG[S5]ELL[S5]ALDQVNIDEEVL[Nle][S5]LVI[S5][Nle]G-NH2; staple 5-9, 23-27) | > 700 | +++ (≤25 but <50: +++) | > 30 | ++++ (≥30: ++++)
CCCC[C@H](NC(=O)[C@H](CCC(=O)O)NC(=O)[C@]1(C)CCCC=CCCCCCC[C@@](C)(NC(=O)[C@H](CCC(=O)O)NC(=O)[C@H](CC(=O)O)NC(=O)[C@@H](NC(=O)[C@H](Cc2ccccc2)NC(C)=O)[C@@H](C)CC)C(=O)N[C@@H](C(C)C)C(=O)N[C@@H](CC(C)C)C(=O)N[C@@H](CCCC)C(=O)N[C@@H](CO)C(=O)N[C@@H](CC(C)C)C(=O)N[C@@H](C(C)C)C(=O)N1)C(=O)N[C@@H](C)C(=O)N[C@@H](CC(C)C)C(N)=O [SP-195] (Ac-FIDE[R8]VL[Nle]SLV[S5]E[Nle]AL-NH2; staple 5-12) | 400 to 700 | ++++ (≥50: ++++) | ≤ 5 | ++ (≤5 but <15: ++)
CCCC[C@H](NC(=O)[C@H](CCC(=O)O)NC(=O)[C@]1(C)CCCC=CCCCCCC[C@@](C)(NC(=O)[C@H](CCC(=O)O)NC(=O)[C@H](CC(=O)O)NC(=O)[C@@H](NC(=O)[C@H](CC(N)=O)NC(=O)[C@@H](NC(=O)[C@H](CCC(N)=O)NC(=O)[C@H](CC(=O)O)NC(=O)[C@H](CC(C)C)NC(=O)[C@H](C)NC(=O)[C@H](CCCNC(=N)N)NC(=O)[C@H](CC(C)C)NC(=O)[C@H](CC(C)C)NC(=O)[C@H](CCC(=O)O)NC(=O)[C@H](CCC(=O)O)NC(=O)CNC(=O)[C@H](CCC(N)=O)NC(=O)[C@H](CC(C)C)NC(=O)[C@H](CC(C)C)NC(C)=O)C(C)C)[C@@H](C)CC)C(=O)N[C@@H](C(C)C)C(=O)N[C@@H](CC(C)C)C(=O)N[C@@H](CCCC)C(=O)N[C@@H](CO)C(=O)N[C@@H](CC(C)C)C(=O)N[C@@H](C(C)C)C(=O)N1)C(N)=O [SP-336] (Ac-LLQGEELLRALDQVNIDE[R8]VL[Nle]SLV[S5]E[Nle]-NH2; staple 19-26) | > 700 | + (<10: +) | > 30 | ++++ (≥30: ++++)
CCCC[C@H](NC(=O)[C@H](CC(C)C)NC(=O)[C@@H](NC(=O)[C@H](CCC(=O)O)NC(=O)[C@H](CCC(=O)O)NC(=O)[C@H](CC(=O)O)NC(=O)[C@@H](NC(=O)[C@H](CC(N)=O)NC(=O)[C@@H](NC(=O)[C@H](CCC(N)=O)NC(=O)[C@H](CC(=O)O)NC(=O)[C@H](CC(C)C)NC(=O)[C@]1(C)CCCC=CCCC[C@](C)(NC(=O)[C@H](CCC(=O)O)NC(=O)CNC(=O)[C@H](CCC(N)=O)NC(=O)[C@H](CC(C)C)NC(=O)[C@H](CC(C)C)NC(C)=O)C(=O)N[C@@H](CC(C)C)C(=O)N[C@@H](CC(C)C)C(=O)N[C@@H](CCCNC(=N)N)C(=O)N1)C(C)C)[C@@H](C)CC)C(C)C)C(=O)N[C@@]1(C)CCCC=CCCC[C@@](C)(C(=O)N[C@@H](CCCC)C(=O)NCC(N)=O)NC(=O)[C@H]([C@@H](C)CC)NC(=O)[C@H](C(C)C)NC(=O)[C@H](CC(C)C)NC1=O [SP-307] (Ac-LLQGE[S5]LLR[S5]LDQVNIDEEVL[Nle][S5]LVI[S5][Nle]G-NH2; staple 6-10, 23-27) | > 700 | +++ (≤25 but <50: +++) | > 30 | ++++ (≥30: ++++)
CCCC[C@H](NC(=O)[C@H](Cc1ccccc1)NC(=O)[C@@H](NC(=O)[C@H](CCC(=O)O)NC(=O)[C@H](CCC(=O)O)NC(=O)[C@H](CC(=O)O)NC(=O)[C@@H](NC(=O)[C@H](Cc1ccccc1)NC(C)=O)[C@@H](C)CC)C(C)C)C(=O)N[C@@]1(C)CCCC=CCCC[C@@](C)(C(=O)N[C@@H](CCCC)C(=O)N[C@@H](C)C(=O)N[C@@H](CC(C)C)C(=O)N[C@@H](CC(=O)O)C(=O)N[C@@H](CCCNC(=N)N)C(=O)N[C@H](C(N)=O)[C@@H](C)CC)NC(=O)[C@H]([C@@H](C)CC)NC(=O)[C@H](C(C)C)NC(=O)[C@H](CC(C)C)NC1=O [SP-265] (Ac-FIDEEVF[Nle][S5]LVI[S5][Nle]ALDRI-NH2; staple 9-13) | 200 to 400 | ++++ (≥50: ++++) | 5 to 15 | ++++ (≥30: ++++)
CCCC[C@H](NC(=O)[C@@]1(C)CCCC=CCCCC2(CCCC=CCCC[C@](C)(NC(=O)[C@H](CCC(=O)O)NC(=O)[C@H](CC(=O)O)NC(=O)[C@@H](NC(=O)[C@H](Cc3ccccc3)NC(C)=O)[C@@H](C)CC)C(=O)N[C@@H](C(C)C)C(=O)N[C@@H](CC(C)C)C(=O)N[C@@H](CCC(=O)O)C(=O)N2)C(=O)N[C@@H](CC(C)C)C(=O)N[C@@H](C(C)C)C(=O)N[C@@H]([C@@H](C)CC)C(=O)N1)C(=O)N[C@@H](C)C(=O)N[C@@H](CC(C)C)C(N)=O (stereo partly drawn) [SP-205] | 200 to 400 | + (<10: +) | > 30 | ++++ (≥30: ++++)
